According to PMC6792352, “Limited Chemical Structural Diversity Found to Modulate Thyroid Hormone Receptor in the Tox21 Chemical Library” (Environmental Health Perspectives, 2019):
Where a name gives a salt, the structure may show the parent alone.

Experiment: in vitro
Conditions: rat, gh3-tre-luc cells, AC50 (uM) modified / 1000

Row | Structure (SMILES) | CC50 at 24 h
1 | C=CC(C)(CCC=C(C)C)OC(=O)c1ccccc1 (stereo not drawn) [Linalyl benzoate] | 53.7 µM
2 | NNCCc1ccccc1 [Phenylethylhydrazine sulfate] | 32.3 µM
3 | O=C1c2ccccc2-c2ccccc21 [9-Fluorenone] | > 90 µM
4 | C#CC(C)(O)CC(C)C (stereo not drawn) [3,5-Dimethyl-1-hexyn-3-ol] | > 90 µM
5 | CC(=O)[C@H]1CC[C@H]2[C@@H]3C=CC4=CC(=O)CC[C@@]4(C)[C@@H]3CC[C@]12C [Dydrogesterone] | > 20 µM
6 | C=Cc1ccc(C=C)cc1 [1,4-Divinylbenzene] | > 100 µM
7 | O=C(O)c1ccco1 [2-Furancarboxylic acid] | > 90 µM
8 | CC(O)CN(C)C (stereo not drawn) [Dimepranol] | > 50 µM
9 | N#CCCCC(C#N)CCC#N (stereo not drawn) [1,3,6-Hexanetricarbonitrile] | > 90 µM
10 | CC(C)(O)c1coc(S(=O)(=O)NC(=O)Nc2c3c(cc4c2CCC4)CCC3)c1 [CP-456773] | > 90 µM
11 | CCCCCCCCC=CCCCCCCCC1=NCCN1CCO [2-(8-Heptadecenyl)-2-imidazoline-1-ethanol] | 23.2 µM
12 | O=C(c1ccccc1)c1cc(Cl)ccc1O [(5-Chloro-2-hydroxyphenyl)phenylmethanone] | > 90 µM
13 | CC(C)S [Isopropyl mercaptan] | > 90 µM
14 | C[C@]12CCC(=O)C=C1CC[C@@H]1[C@@H]2C(=O)C[C@@]2(C)[C@H]1CC[C@]2(O)C(=O)CO [Cortisone] | > 90 µM
15 | OCC1(CO)COC(C(Cl)(Cl)Cl)OC1 [Penthrichloral] | > 50 µM
16 | CC(C)(O)c1ccc(CNC(=O)c2cccnc2Oc2ccc3nonc3c2)cc1 [CP-612372] | > 90 µM
17 | N#CCc1ccc(Cl)cc1Cl [(2,4-Dichlorophenyl)acetonitrile] | > 90 µM
18 | CC(C)(O)c1ccccc1 [2-Phenylpropan-2-ol] | > 90 µM
19 | O=Cc1ccc([N+](=O)[O-])cc1 [4-Nitrobenzaldehyde] | > 90 µM
20 | CC(C)OC(=O)C(C(=O)OC(C)C)=C1SC=CS1 [Malotilate] | > 50 µM
21 | COc1cccc2c1C(=O)c1c(O)c3c(c(O)c1C2=O)C[C@@](O)(C(C)=O)C[C@@H]3O[C@H]1C[C@H](N)[C@H](O)[C@H](C)O1 [Daunomycin hydrochloride] | 0.244 µM
22 | CC(C)NCC(O)COc1ccc(COCCOC(C)C)cc1 (stereo not drawn) [Bisoprolol fumarate] | > 50 µM
23 | O=C(N[C@@H](Cc1ccccc1)[C@@H](O)C(=O)N1C[C@@H](O)[C@@H](O)C1)c1cc2cc(Cl)ccc2[nH]1 [Ingliforib] | 78.2 µM

Row | Structure (SMILES) | CC50 at 24 h
24 | CN(C)C(=O)Oc1cccc([N+](C)(C)C)c1 [Neostigmine bromide] | > 50 µM
25 | COc1cc(/C=C/C(=O)O[C@H]2CC[C@]34C[C@]35CC[C@]3(C)[C@@H]([C@H](C)CCC=C(C)C)CC[C@@]3(C)[C@@H]5CC[C@H]4C2(C)C)ccc1O [gamma-Oryzanol] | > 50 µM
26 | CCN(C)N=O [N-Nitroso-N-methylethylamine] | > 90 µM
27 | COc1ccc2c3c1O[C@H]1[C@H](O)CC[C@H]4[C@@H](C2)N(C)CC[C@@]341 [Dihydroisocodeine] | > 90 µM
28 | Clc1ccc(C(Cn2ccnc2)OCc2ccsc2Cl)c(Cl)c1 (stereo not drawn) [Tioconazole] | 14.7 µM
29 | CC(=O)OC(C)=O [Acetic anhydride] | > 90 µM
30 | Brc1cc(Br)c(Oc2cc(Br)c(Br)cc2Br)cc1Br [2,2',4,4',5,5'-Hexabromodiphenyl ether] | > 50 µM
31 | CC(NCCC(c1ccccc1)c1ccccc1)c1ccccc1 (stereo not drawn) [Fendiline hydrochloride] | 6.49 µM
32 | CCOC(=O)[N-]c1cn(N2CCOCC2)n[o+]1 [Molsidomine] | > 20 µM
33 | COc1cc(C)cc(O)c1 [3-Methoxy-5-methylphenol] | > 90 µM
34 | Cc1ccc(C)c(O)c1C [2,3,6-Trimethylphenol] | > 90 µM
35 | Oc1ccc(Cl)c2cccnc12 [Cloxyquin] | 7.71 µM
36 | CC(=O)NC(Cc1ccccc1)C(=O)O (stereo not drawn) [Afalanine] | > 50 µM
37 | NCCO [2-Hydroxyethylammonium formate] | > 90 µM
38 | O=C(CCCCCCCCCCCCC1CCCC1)Nc1ccc(S(=O)(=O)c2ccc(NC(=O)CCCCCCCCCCCCC3CCCC3)cc2)cc1 [Chaulmosulfone] | > 50 µM
39 | O=Cc1ccco1 [Furfural] | > 90 µM
40 | COCCOC(=O)C1=C(C)NC(C)=C(C(=O)OC/C=C/c2ccccc2)C1c1cccc([N+](=O)[O-])c1 (stereo not drawn) [Cilnidipine] | 12.4 µM
41 | CC(=O)C1CCOC1=O (stereo not drawn) [3-Acetyldihydro-2(3H)-furanone] | > 100 µM
42 | Cc1cc(O)c(C(C)(C)C)cc1Sc1cc(C(C)(C)C)c(O)cc1C [4,4'-Thiobis(6-tert-butyl-m-cresol)] | 3.64 µM
43 | Oc1ccc2c(c1)-c1ccccc1C2 [3-Hydroxyfluorene] | > 90 µM
44 | CC1(C)C(=O)NC(=O)NC1=O [5,5-Dimethylbarbituric acid] | > 90 µM
45 | CC/C=C/CCCCCCCCC1CC(=O)OC1=O (stereo not drawn) [(Tetrapropenyl)succinic anhydride] | > 90 µM
46 | COc1nc(N)nc2c1ncn2[C@@H]1O[C@H](CO)[C@@H](O)[C@@H]1O [Nelarabine] | > 50 µM

Row | Structure (SMILES) | CC50 at 24 h
47 | Clc1cnc(Oc2ccc(Oc3ncc(Cl)cc3Cl)cc2)c(Cl)c1 [1,4-Bis[2-(3,5-dichloropyridyloxy)]benzene] | > 60 µM
48 | CCCCc1ccc2c(n1)[C@@H](c1ccc(OC)cc1C[C@H](C)C(=O)O)[C@H](C(=O)O)[C@H]2c1ccc2c(c1)OCO2 [MK-547] | > 90 µM
49 | COCC(C)OCC(C)O (stereo not drawn) [Dipropylene glycol monomethyl ether] | > 90 µM
50 | O=C(Cl)c1cc(Cl)cc(Cl)c1 [3,5-Dichlorobenzoyl chloride] | > 90 µM
51 | C=COC(=O)C(C)(C)CCCCCC [Vinyl neodecanoate] | > 90 µM
52 | Nc1nc(=O)[nH]cc1F [Flucytosine] | > 20 µM
53 | C[N+]1(C)[C@@H]2C[C@@H](OC(=O)C(O)(c3cccs3)c3cccs3)C[C@H]1[C@@H]1O[C@@H]12 [Tiotropium bromide] | > 50 µM
54 | CCCCn1cc[n+](C)c1C [1-Butyl-2,3-dimethylimidazolium chloride] | > 90 µM
55 | NC[C@H]1CC[C@H](C(=O)O)CC1 [Tranexamic acid] | > 20 µM
56 | CCC(=O)/C=C/c1ccc(OC)cc1 [1-(4-Methoxyphenyl)-1-pentene-3-one] | > 90 µM
57 | CCCCCCOC(=O)CCCCC [Hexyl hexanoate] | > 90 µM
58 | O=S(=O)(c1ccccc1)c1ccc(Cl)cc1 [4-Chlorophenyl phenyl sulfone] | > 90 µM
59 | O=C1C(c2[nH]c3ccc(S(=O)(=O)O)cc3c2O)=Nc2ccc(S(=O)(=O)O)cc21 [C.I. Acid Blue 74] | > 90 µM
60 | O=C(CCCN1CCC(n2c(=S)[nH]c3ccccc32)CC1)c1ccc(F)cc1 [Timiperone] | 23.9 µM
61 | CCCCCCCC/C=C\CCCCCCCCCCCC(=O)O [(13Z)-Docos-13-enoic acid] | > 90 µM
62 | NC(=O)c1ccccc1[N+](=O)[O-] [2-Nitrobenzamide] | > 90 µM
63 | CCNS(=O)(=O)C(F)(F)C(F)(F)C(F)(F)C(F)(F)C(F)(F)C(F)(F)C(F)(F)C(F)(F)F [N-Ethylperfluorooctanesulfonamide] | > 90 µM
64 | CCC(C)c1cc([N+](=O)[O-])cc([N+](=O)[O-])c1OC(=O)OC(C)C (stereo not drawn) [Dinobuton] | 42.5 µM
65 | CCCCN(CCCC)C(=S)SSC(=S)N(CCCC)CCCC [Tetrabutylthiuram disulfide] | > 90 µM
66 | O=C(O)c1ccc(O)cc1 [4-Hydroxybenzoic acid] | > 90 µM
67 | CC(=O)[C@H]1[C@H](C#N)C[C@H]2[C@@H]3CC=C4C[C@@H](O)CC[C@]4(C)[C@H]3CC[C@@]21C [Pregnenolone carbonitrile] | > 60 µM

Same assay, conditions: rat, gh3-tre-luc cells, AC50 (uM) modified / 1000, Tox21_110001=Tox21_110993; viability, 1 nM T3 present, 24 h

Row | Structure (SMILES) | CC50 at 24 h
68 | COP(=S)(OC)SCN1C(=O)c2ccccc2C1=O [Phosmet] | > 50 µM

Same assay, conditions: rat, gh3-tre-luc cells, AC50 (uM) modified / 1000, Tox21_110001=Tox21_112760; viability, 1 nM T3 present, 24 h

Row | Structure (SMILES) | CC50 at 24 h
69 | C[C@]12CC[C@H]3[C@@H](CCC4=C(O)C(=O)CC[C@@H]43)[C@@H]1CC[C@@H]2OC(=O)CCC1CCCC1 [Oxabolone cipioncate] | > 50 µM

Same assay, conditions: rat, gh3-tre-luc cells, AC50 (uM) modified / 1000, Tox21_110001=Tox21_200456; viability, 1 nM T3 present, 24 h

Row | Structure (SMILES) | CC50 at 24 h
70 | CCCCCCCCCCCCCCCl [1-Chlorotetradecane] | > 90 µM

Same assay, conditions: rat, gh3-tre-luc cells, AC50 (uM) modified / 1000, Tox21_110001=Tox21_200649; viability, 1 nM T3 present, 24 h

Row | Structure (SMILES) | CC50 at 24 h
71 | CNC(=O)Oc1cc(C)c(N(C)C)c(C)c1 [Mexacarbate] | > 90 µM

Same assay, conditions: rat, gh3-tre-luc cells, AC50 (uM) modified / 1000, Tox21_110001=Tox21_200899; viability, 1 nM T3 present, 24 h

Row | Structure (SMILES) | CC50 at 24 h
72 | O=[N+]([O-])C(Br)Br [Dibromonitromethane] | > 90 µM

Same assay, conditions: rat, gh3-tre-luc cells, AC50 (uM) modified / 1000, Tox21_110001=Tox21_201254; viability, 1 nM T3 present, 24 h

Row | Structure (SMILES) | CC50 at 24 h
73 | O=P(OCCCl)(OCCCl)OCCCl [Tris(2-chloroethyl) phosphate] | > 90 µM

Same assay, conditions: rat, gh3-tre-luc cells, AC50 (uM) modified / 1000, Tox21_110001=Tox21_202316; viability, 1 nM T3 present, 24 h

Row | Structure (SMILES) | CC50 at 24 h
74 | COP(=S)(OC)SCN1C(=O)c2ccccc2C1=O [Phosmet] | > 90 µM

Same assay, conditions: rat, gh3-tre-luc cells, AC50 (uM) modified / 1000, Tox21_110001=Tox21_202917; viability, 1 nM T3 present, 24 h

Row | Structure (SMILES) | CC50 at 24 h
75 | C1CS1 [Ethylene sulfide] | > 90 µM

Same assay, conditions: rat, gh3-tre-luc cells, AC50 (uM) modified / 1000, Tox21_110001=Tox21_301184; viability, 1 nM T3 present, 24 h

Row | Structure (SMILES) | CC50 at 24 h
76 | COc1cc(OC)nc(NC(=O)NS(=O)(=O)c2ncccc2OCC(F)(F)F)n1 [Trifloxysulfuron-sodium] | > 90 µM

Same assay, conditions: rat, gh3-tre-luc cells, AC50 (uM) modified / 1000, Tox21_110001=Tox21_301424; viability, 1 nM T3 present, 24 h

Row | Structure (SMILES) | CC50 at 24 h
77 | CNC(=O)Oc1cc(C)cc(C(C)C)c1 [Promecarb] | > 90 µM

Same assay, conditions: rat, gh3-tre-luc cells, AC50 (uM) modified / 1000, Tox21_110001=Tox21_400051; viability, 1 nM T3 present, 24 h

Row | Structure (SMILES) | CC50 at 24 h
78 | O=S(=O)(O)C(F)(F)C(F)(F)C(F)(F)C(F)(F)F [Potassium perfluorobutanesulfonate] | > 100 µM
